Assay results: patent US7700602B2, “Amino-5,5-diphenylimidazolone derivatives for the inhibition of β-secretase” (Wyeth LLC, priority 2004, dated 2010)
Where two headings read alike, the source gives them in different places.

What was measured:
human BACE1 = human BACE1 (Homo sapiens, UniProt P56817); experiment: Fluorescent kinetic assay, inhibition of BACE1 (WABC-6 peptide substrate); type: biochemical;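 note: fluorescence monitored at 320 nm excitation and 420 nm emission every 40 s over 30 min, with the substrate cleavage rate taken from the linear slope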
human BACE2 = molecular target: T1, human BACE2 (Homo sapiens, UniProt Q9Y5Z0); experiment: Fluorescent Kinetic Assay for Human Recombinant BACE 2 (selectivity BACE1/BACE2); type: biochemical; conditions: selectivity BACE1 over BACE2; 1.5 nM human BACE2, 25 μM substrate, pH 4.5;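 note: cleavage rate from the linear slope of fluorescence (excitation 320 nm, emission 420 nm) recorded every 40 s over 30 min at room temperature, sodium acetate buffer with 0.05% CHAPS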
T1 sequence (Q9Y5Z0 63-518): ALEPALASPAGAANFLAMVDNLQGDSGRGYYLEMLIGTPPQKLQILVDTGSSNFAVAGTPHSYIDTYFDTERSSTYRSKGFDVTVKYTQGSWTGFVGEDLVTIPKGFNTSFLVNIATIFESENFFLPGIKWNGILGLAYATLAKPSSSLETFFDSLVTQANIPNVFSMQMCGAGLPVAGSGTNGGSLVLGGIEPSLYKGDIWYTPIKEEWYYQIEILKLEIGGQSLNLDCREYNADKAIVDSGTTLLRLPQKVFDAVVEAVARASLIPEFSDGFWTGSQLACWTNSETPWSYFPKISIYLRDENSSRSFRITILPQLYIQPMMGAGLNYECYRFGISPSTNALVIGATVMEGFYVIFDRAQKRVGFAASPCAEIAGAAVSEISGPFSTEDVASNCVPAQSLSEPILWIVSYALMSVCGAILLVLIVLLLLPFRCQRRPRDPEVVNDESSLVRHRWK

[1] = 10 nM enzyme, 25 μM substrate WABC-6, pH 4.5, room temperature, read-out: IC50 (μM) BACE1

Sequence of human BACE1 (P56817 46-501): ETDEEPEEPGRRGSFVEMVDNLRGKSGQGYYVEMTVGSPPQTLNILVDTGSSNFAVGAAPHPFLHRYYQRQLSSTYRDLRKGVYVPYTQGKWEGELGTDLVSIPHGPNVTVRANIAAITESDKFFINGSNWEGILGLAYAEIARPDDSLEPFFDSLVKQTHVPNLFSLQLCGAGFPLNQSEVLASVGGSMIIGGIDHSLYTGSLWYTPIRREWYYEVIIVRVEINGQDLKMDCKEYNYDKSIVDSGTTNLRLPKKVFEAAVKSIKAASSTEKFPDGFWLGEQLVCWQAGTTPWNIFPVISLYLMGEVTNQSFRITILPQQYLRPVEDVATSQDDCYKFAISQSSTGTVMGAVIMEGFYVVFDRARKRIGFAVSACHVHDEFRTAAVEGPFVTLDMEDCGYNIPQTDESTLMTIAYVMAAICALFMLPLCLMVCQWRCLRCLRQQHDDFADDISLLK

IC50 (human BACE1; [1]) [µM] | BACE1/BACE2 selectivity (human BACE2) | IC50 (human BACE1) [µM] | SMILES
0.01 to 0.1 | II (II = 10-100-fold selectivity) |  | COc1ccc(C2(c3ccc(F)c(-c4cncc(F)c4)c3)N=C(N)N(C)C2=O)cc1C (centres unmarked) [Example 61]
0.01 to 0.1 | II (II = 10-100-fold selectivity) |  | COc1ccc(C2(c3ccc(F)c(-c4cccnc4F)c3)N=C(N)N(C)C2=O)cc1 (centres unmarked) [Example 62]
0.01 to 0.1 | III (III = <10-fold selectivity) |  | CCCOc1cc(C2(c3cccc(-c4cccnc4)c3)N=C(N)N(C)C2=O)ccc1OC (centres unmarked) [Example 16]
0.01 to 0.1 | II (II = 10-100-fold selectivity) |  | CN1C(=O)[C@@](c2ccc(OC(F)F)cc2)(c2cccc(-c3ccc(F)nc3)c2)N=C1N [Example 135B, (5R)-2-Amino-5-[4-(difluoromethoxy)phenyl]-5-[3-(6-fluoropyridin-3-yl)phenyl]-3-methyl-3,5-dihydro-4H-imidazol-4-one]
0.01 to 0.1 | II (II = 10-100-fold selectivity) |  | COc1ccc(C2(c3ccc(F)c(-c4cncc(F)c4)c3)N=C(N)N(C)C2=O)cc1 (centres unmarked) [Example 60]
> 1 | III (III = <10-fold selectivity) |  | COc1ccc([C@@]2(c3ccc(F)c(-c4cncc(F)c4)c3)N=C(N)N(C)C2=O)cc1 [Example 142A, (5S)-2-Amino-5-[4-fluoro-3-(5-fluoropyridin-3-yl)phenyl]-5-(4-methoxyphenyl)-3-methyl-3,5-dihydro-4H-imidazol-4-one]
0.01 to 0.1 | III (III = <10-fold selectivity) |  | COc1ccc(C2(c3ccc(F)c(-c4cncc(Cl)c4)c3)N=C(N)N(C)C2=O)cc1 (centres unmarked) [Example 80]
0.01 to 0.1 | II (II = 10-100-fold selectivity) |  | COc1ccc(C2(c3cccc(-c4cnccn4)c3)N=C(N)N(C)C2=O)cc1C (centres unmarked) [Example 9]
0.01 to 0.1 | II (II = 10-100-fold selectivity) |  | CCOc1ccc([C@]2(c3cccc(-c4cccnc4F)c3)N=C(N)N(C)C2=O)cc1OCC [Example 103B, (5S)-2-Amino-5-(3,4-diethoxyphenyl)-5-[3-(2-fluoropyridin-3-yl)phenyl]-3-methyl-3,5-dihydro-4H-imidazol-4-one]
0.01 to 0.1 | II (II = 10-100-fold selectivity) |  | CN1C(=O)C(c2ccc(OCCF)cc2)(c2cccc(-c3cncc(F)c3)c2)N=C1N (centres unmarked) [Example 110]
 |  | 0.01 to 0.1 | COc1ccc(C2(c3cccc(-c4cccnc4)c3)N=C(N)N(C)C2=O)cc1F (centres unmarked) [Example 21]
 |  | 0.11 to 1 | COc1ccc([C@@]2(c3cccc(-c4cccnc4F)c3)N=C(N)N(C)C2=O)cc1C [Example 102A, (5R)-2-Amino-5-[3-(2-fluoropyridin-3-yl)phenyl]-5-(4-methoxy-3-methylphenyl]-3-methyl-3,5-dihydro-4H-imidazol-4-one]
0.01 to 0.1 | III (III = <10-fold selectivity) |  | CCOc1ccc(C2(c3cccc(-c4cncc(OC)c4)c3)N=C(N)N(C)C2=O)cc1OCC (centres unmarked) [Example 67]
0.01 to 0.1 | II (II = 10-100-fold selectivity) |  | COc1ccc(C2(c3ccc(F)c(-c4cccnc4F)c3)N=C(N)N(C)C2=O)cc1C(F)(F)F (centres unmarked) [Example 58]
0.11 to 1 | II (II = 10-100-fold selectivity) |  | COc1ccc(C2(c3cccc(-c4cccnc4OC)c3)N=C(N)N(C)C2=O)cc1C (centres unmarked) [Example 75]
0.11 to 1 | II (II = 10-100-fold selectivity) |  | CN1C(=O)C(c2ccc(OC(F)(F)F)cc2)(c2ccc(F)c(-c3ccc(F)nc3)c2)N=C1N (centres unmarked) [Example 73]
0.01 to 0.1 | II (II = 10-100-fold selectivity) |  | COc1ccc(C2(c3ccc(F)c(-c4cnccc4F)c3)N=C(N)N(C)C2=O)cc1 (centres unmarked) [Example 83]
0.11 to 1 | II (II = 10-100-fold selectivity) |  | CN1C(=O)C(c2ccc(OC(F)(F)F)c(F)c2)(c2ccc(F)c(-c3cncc(F)c3)c2)N=C1N (centres unmarked) [Example 41, 2-Amino-5-[4-fluoro-3-(5-fluoropyridin-3-yl)phenyl]-5-[3-fluoro-4-(trifluoromethoxy)phenyl]-3-methyl-3,5-dihydro-imidazol-4-one]
0.11 to 1 | III (III = <10-fold selectivity) |  | CN1C(=O)C(c2ccc(OC(F)(F)F)cc2)(c2ccc(F)c(-c3cnn(C)c3)c2)N=C1N (centres unmarked) [Example 100, 2-Amino-5-[4-fluoro-3-(1-methyl-1H-pyrazol-4-yl)phenyl]3-methyl-5-[4-(trifluoromethoxy)phenyl]-3,5-dihydro-4H-imidazol-4-one]
> 1 | III (III = <10-fold selectivity) |  | CCOc1ccc([C@@]2(c3cccc(-c4cccnc4F)c3)N=C(N)N(C)C2=O)cc1OCC [Example 103A, (5R)-2-Amino-5-(3,4-diethoxyphenyl)-5-[3-(2-fluoropyridin-3-yl)phenyl]-3-methyl-3,5-dihydro-4H-imidazol-4-one]

IC50 (human BACE1; [1]) [µM] | BACE1/BACE2 selectivity (human BACE2) | IC50 (human BACE1) [µM] | SMILES
0.11 to 1 | II (II = 10-100-fold selectivity) |  | COc1ncccc1-c1cc(C2(c3ccc(OC(F)(F)F)cc3)N=C(N)N(C)C2=O)ccc1F (centres unmarked) [Example 72]
0.01 to 0.1 | III (III = <10-fold selectivity) |  | CCCCOc1cc(C2(c3cccc(-c4cccnc4)c3)N=C(N)N(C)C2=O)ccc1OC (centres unmarked) [Example 17]
0.11 to 1 | II (II = 10-100-fold selectivity) |  | Cc1cc(C2(c3cccc(-c4cncnc4)c3)N=C(N)N(C)C2=O)ccc1OCCC1CCCCC1 (centres unmarked) [Example 123]
0.01 to 0.1 | II (II = 10-100-fold selectivity) |  | CCOc1ccc(C2(c3cccc(-c4cccnc4F)c3)N=C(N)N(C)C2=O)cc1OCC (centres unmarked) [Example 70]
0.11 to 1 | I (I = >100-fold selectivity) |  | NC1=NC(c2ccc(OC(F)(F)F)cc2)(c2ccc(F)c(-c3cncnc3)c2)C(=O)N1CCF (centres unmarked) [Example 126]
 | III (III = <10-fold selectivity) | 0.11 to 1 | COc1ccc(C2(c3cccc(-c4cccnc4)c3)N=C(N)N(C)C2=O)cc1C#N (centres unmarked) [Example 20]
0.01 to 0.1 | II (II = 10-100-fold selectivity) |  | CN1C(=O)C(c2ccc(OC(F)F)cc2)(c2ccc(F)c(-c3cc(F)cnc3F)c2)N=C1N (centres unmarked) [Example 92]
0.01 to 0.1 | II (II = 10-100-fold selectivity) |  | COc1ccc([C@]2(c3ccc(F)c(-c4cnccc4F)c3)N=C(N)N(C)C2=O)cc1 [Example 143B, (5R)-2-Amino-5-[4-fluoro-3-(4-fluoropyridin-3-yl)phenyl]-5-(4-methoxyphenyl)-3-methyl-3,5-dihydro-4H-imidazol-4-one]
0.11 to 1 | I (I = >100-fold selectivity) |  | CN1CC(c2ccc(OC(F)(F)F)cc2)(c2ccc(F)c(-c3cccnc3F)c2)N=C1N (centres unmarked) [Example 144, 4-[4-Fluoro-3-(2-fluoropyridin-3-yl)phenyl]-1-methyl-4-(4-trifluoromethoxyphenyl)-4,5-dihydro-1H-imidazol-2-ylamine]
0.01 to 0.1 | II (II = 10-100-fold selectivity) |  | CCN1C(=O)C(c2cccc(-c3cccnc3)c2)(c2ccc(OC)c(C)c2)N=C1N (centres unmarked) [Example 8]
0.01 to 0.1 | I (I = >100-fold selectivity) |  | COc1ccc(C2(c3ccc(F)c(-c4cncnc4)c3)N=C(N)N(C)C2=O)cc1 (centres unmarked) [Example 63]
0.01 to 0.1 | II (II = 10-100-fold selectivity) |  | CN1C(=O)C(c2ccc(OC(F)(F)F)cc2)(c2cccc(-c3cnccc3F)c2)N=C1N (centres unmarked) [Example 82]
 |  | 0.11 to 1 | COc1ccc(C2(c3ccc(C#N)c(-c4cccnc4)c3)N=C(N)N(C)C2=O)cc1C (centres unmarked) [Example 5, 4-[2-amino-4-(4-methoxy-3-methylphenyl)-1-methyl-5-oxo-4,5-dihydro-1H-imidazol-4-yl]-2-pyridin-3-ylbenzonitrile]
0.11 to 1 | II (II = 10-100-fold selectivity) |  | COc1ncccc1-c1cccc(C2(c3ccc(OC(F)(F)F)cc3)N=C(N)N(C)C2=O)c1 (centres unmarked) [Example 52]
0.01 to 0.1 | III (III = <10-fold selectivity) |  | COc1cncc(-c2cc(C3(c4ccc(OC(F)(F)F)cc4)N=C(N)N(C)C3=O)ccc2F)c1 (centres unmarked) [Example 71]
0.01 to 0.1 | II (II = 10-100-fold selectivity) |  | CCOc1ccc(C2(c3cccc(-c4cnccc4F)c3)N=C(N)N(C)C2=O)cc1OCC (centres unmarked) [Example 81]
 | II (II = 10-100-fold selectivity) | 0.01 to 0.1 | COc1ccc(C2(c3cccc(-c4cccnc4)c3)N=C(N)N(C)C2=O)cc1OC(C)C (centres unmarked) [Example 18]
0.01 to 0.1 | II (II = 10-100-fold selectivity) |  | CN1C(=O)[C@@](c2ccc(OC(F)F)cc2)(c2ccc(F)c(-c3cccnc3F)c2)N=C1N [Example 133B, (5R)-2-Amino-5-[4-(difluoromethoxy)phenyl]-5-[4-fluoro-3-(2-fluoropyridin-3-yl)phenyl]-3-methyl-3,5-dihydro-4H-imidazol-4-one]
 |  | 0.01 to 0.1 | COc1ccc([C@]2(c3cccc(-c4cccnc4F)c3)N=C(N)N(C)C2=O)cc1C [Example 102B, (5S)-2-Amino-5-[3-(2-fluoropyridin-3-yl)phenyl]-5-(4-methoxy-3-methylphenyl]-3-methyl-3,5-dihydro-4H-imidazol-4-one]
